Measured values as given in patent publication US10986838B2, “Herbicides” (SYNGENTA PARTICIPATIONS AG, priority 2016, dated 2021).

How the values were obtained:
Format in all cases: in vivo
[1] = tested on: Alopecurus myosuroides (ALOMY); experiment: Pre-emergence herbicidal activity (B1); settings: Test 1a, 1000 g/ha, evaluated after 13 days, 5=total damage to plant, 0=no damage to plant
Method in brief: (§1)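 Glasshouse pre-emergence spray test: compound in acetone/water (50:50), 0.5% Tween 20, applied one day after sowing; plants kept at 24/16 °C day/night, 14 h light, 65% humidity, then scored 0–5 for damage after 13 days.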

[2] = tested on: Avena fatua (AVEFA); experiment: Pre-emergence herbicidal activity (B1); settings: Test 1a, 1000 g/ha, evaluated after 13 days, 5=total damage to plant, 0=no damage to plant
Method in brief: as §1

[3] = tested on: Echinochloa crus-galli (ECHCG); experiment: Pre-emergence herbicidal activity (B1); settings: 1000 g/ha, evaluated after 13 days, 5=total damage to plant, 0=no damage to plant
Method in brief: as §1

[4] = tested on: Lolium perenne (LOLPE); experiment: Pre-emergence herbicidal activity (B1); settings: 1000 g/ha, evaluated after 13 days, 5=total damage to plant, 0=no damage to plant
Method in brief: as §1

[5] = tested on: Setaria faberi (SETFA); experiment: Pre-emergence herbicidal activity (B1); settings: 1000 g/ha, evaluated after 13 days, 5=total damage to plant, 0=no damage to plant
Method in brief: as §1

[6] = tested on: Triticum aestivium (TRZAW); experiment: Pre-emergence herbicidal activity (B1); settings: Test 1a, 1000 g/ha, evaluated after 13 days, 5=total damage to plant, 0=no damage to plant
Method in brief: as §1

[7] = tested on: Alopecurus myosuroides (ALOMY); experiment: Post-emergence herbicidal activity (B2); settings: Test B2a, 1000 g/ha, evaluated after 13 days, 5=total damage to plant, 0=no damage to plant
Method in brief: (§2)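 Post-emergence spray at 8 days after sowing; vehicle acetone/water 50:50 + 0.5% Tween 20; glasshouse 24/16 °C, 14 h light, 65% RH, watered twice daily; visual score day 13, 0 = no damage, 5 = total damage.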

[8] = tested on: Avena fatua (AVEFA); experiment: Post-emergence herbicidal activity (B2); settings: Test B2a, 1000 g/ha, evaluated after 13 days, 5=total damage to plant, 0=no damage to plant
Method in brief: as §2

[9] = tested on: Echinochloa crus-galli (ECHCG); experiment: Post-emergence herbicidal activity (B2); settings: 1000 g/ha, evaluated after 13 days, 5=total damage to plant, 0=no damage to plant
Method in brief: as §2

[10] = tested on: Lolium perenne (LOLPE); experiment: Post-emergence herbicidal activity (B2); settings: 1000 g/ha, evaluated after 13 days, 5=total damage to plant, 0=no damage to plant
Method in brief: as §2

[11] = tested on: Setaria faberi (SETFA); experiment: Post-emergence herbicidal activity (B2); settings: 1000 g/ha, evaluated after 13 days, 5=total damage to plant, 0=no damage to plant
Method in brief: as §2

[12] = tested on: Triticum aestivium (TRZAW); experiment: Post-emergence herbicidal activity (B2); settings: Test B2a, 1000 g/ha, evaluated after 13 days, 5=total damage to plant, 0=no damage to plant
Method in brief: as §2

[13] = tested on: Abutilon theophrasti (ABUTH); experiment: Pre-emergence herbicidal activity (B1); settings: Test 1b, 1000 g/ha, evaluated after 13 days, 5=total damage to plant, 0=no damage to plant
Method in brief: as §1

[14] = tested on: Amaranthus retroflexus (AMARE); experiment: Pre-emergence herbicidal activity (B1); settings: Test 1b, 1000 g/ha, evaluated after 13 days, 5=total damage to plant, 0=no damage to plant
Method in brief: as §1

[15] = tested on: Zea Mays (ZEAMX); experiment: Pre-emergence herbicidal activity (B1); settings: Test 1b, 1000 g/ha, evaluated after 13 days, 5=total damage to plant, 0=no damage to plant
Method in brief: as §1

[16] = tested on: Abutilon theophrasti (ABUTH); experiment: Post-emergence herbicidal activity (B2); settings: Test B2b, 1000 g/ha, evaluated after 13 days, 5=total damage to plant, 0=no damage to plant
Method in brief: as §2

[17] = tested on: Amaranthus retroflexus (AMARE); experiment: Post-emergence herbicidal activity (B2); settings: Test B2b, 1000 g/ha, evaluated after 13 days, 5=total damage to plant, 0=no damage to plant
Method in brief: as §2

[18] = tested on: Zea Mays (ZEAMX); experiment: Post-emergence herbicidal activity (B2); settings: Test B2b, 1000 g/ha, evaluated after 13 days, 5=total damage to plant, 0=no damage to plant
Method in brief: as §2

| Compound | ALOMY damage score [1] | AVEFA damage score [2] | ECHCG damage score ([3]; Test 1a) | LOLPE damage score ([4]; Test 1a) | SETFA damage score ([5]; Test 1a) | TRAZW damage score [6] | ALOMY damage score [7] | AVEFA damage score [8] | ECHCG damage score ([9]; Test B2a) | LOLPE damage score ([10]; Test B2a) | SETFA damage score ([11]; Test B2a) | TRAZW damage score [12] | further results |
| --- | --- | --- | --- | --- | --- | --- | --- | --- | --- | --- | --- | --- | --- |
| Fc1cncc(-c2ccc(NCc3cnco3)c(C(F)(F)F)n2)c1 [Compound A60] | 0 | 3 | 5 | 1 | 5 | 0 | 1 | 3 | 5 | 4 | 5 | 2 |  |
| CNc1ccc(-c2cncc(C#N)c2)nc1C(F)(F)F [Compound A1] | 0 | 1 | 1 | 1 | 4 | 0 | 0 | 3 | 3 | 2 | 5 | 2 |  |
| Fc1cncc(-c2ccc(NCc3cscn3)c(C(F)(F)F)n2)c1 [Compound A57] | 1 | 3 | 5 | 1 | 5 | 0 | 1 | 4 | 5 | 4 | 5 | 2 |  |
| Nc1ccc(-c2cncc(Cl)c2)nc1C(F)(F)F [Compound A3] | 0 | 1 | 3 | 1 | 5 | 0 | 1 | 3 | 3 | 2 | 4 | 0 |  |
| N#Cc1cncc(-c2ccc(N)c(C(F)(F)F)n2)c1 [Compound A2] | 0 | 0 | 2 | 1 | 4 | 0 | 1 | 3 | 4 | 2 | 5 | 0 |  |
| Cn1ccc(CNc2ccc(-c3cncc(F)c3)nc2C(F)(F)F)n1 [Compound A59] | 0 | 3 | 4 | 1 | 5 | 0 | 1 | 3 | 5 | 3 | 5 | 2 |  |
| Fc1cncc(-c2ccc(NCc3nccs3)c(C(F)(F)F)n2)c1 [Compound A56] | 0 | 2 | 4 | 1 | 5 | 1 | 1 | 4 | 5 | 3 | 5 | 1 |  |
| CCCCCCNc1ccc(-c2cncc(F)c2)nc1C(F)(F)F [Compound A42] | 0 | 2 | 4 | 1 | 5 | 0 | 1 | 3 | 5 | 2 | 5 | 1 |  |
| COC(=O)c1nc(-c2cncc(F)c2)ccc1N [Compound A41] | 0 | 0 | 2 | 0 | 2 | 0 | 0 | 1 | 2 | 0 | 2 | 0 |  |
| CN1CCN(c2ccc(-c3cncc(F)c3)nc2C(F)(F)F)CC1 [Compound A61] | 0 | 2 | 4 | 0 | 5 | 0 | 1 | 3 | 5 | 2 | 5 | 1 |  |
| Fc1cncc(-c2ccc(NCC3CCC3)c(C(F)(F)F)n2)c1 [Compound A51, N-(cyclobutylmethyl)-6-(5-fluoro-3-pyridyl)-2-(trifluoromethyl)pyridin-3-amine] | 1 | 1 | 5 | 1 | 5 | 1 | 1 | 4 | 5 | 3 | 4 | 2 |  |
| Fc1cncc(-c2ccc(NC3CCCCC3)c(C(F)(F)F)n2)c1 [Compound A45] | 0 | 1 | 3 | 0 | 4 |  | 0 | 2 | 2 | 1 | 4 | 0 |  |
| Fc1cncc(-c2ccc(NCC3CC3)c(C(F)(F)F)n2)c1 [Compound A29] |  |  |  |  |  |  |  |  |  |  |  |  | ABUTH damage score [13]: 1; AMARE damage score [14]: 3; ECHCG damage score ([3]; Test 1b): 4; LOLPE damage score ([4]; Test 1b): 3; SETFA damage score ([5]; Test 1b): 5; ZEAMX damage score [15]: 5; ABUTH damage score [16]: 2; AMARE damage score [17]: 2; ECHCG damage score ([9]; Test B2b): 5; LOLPE damage score ([10]; Test B2b): 4; SETFA damage score ([11]; Test B2b): 5; ZEAMX damage score [18]: 5 |
